# “Also recorded” adds a separate entry of the source.
# B1: noggin: BMPs antagonist, 250 ng/ml (protein, UniProt Q13253 28-232, looked up)
# Noggin: QHYLHIRPAPSDNLPLVDLIEHPDPIFDPKEKDLNETLLRSLLGGHYDPGFMATSPPEDRPGGGGGAAGGAEDLAELDQLLRQRPSGAMPSEIKGLEFSEGLAQGKKQRLSKKLRRKLQMWLWSQTFCPVLYAWNDLGSRFWPRYVKVGSCFSKRSCSVPEGMVCKPSKSVHLTVLRWRCQRRGGQRCGWIPIQYPIISECKCSC
# B2: activin A: TGFβ superfamily factor, 25-50 ng/ml (protein, UniProt P08476 311-426, looked up)
# Inhibin beta A chain: GLECDGKVNICCKKQFFVSFKDIGWNDWIIAPSGYHANYCEGECPSHIAGTSGSSLSFHSTVINHYRMRGHSPFANLKSCCVPTKLRPMSMLYYDDGQNIIKKDIQNMIVEECGCS
# modifications: Inhibin beta A chain
# notes: TGFβ superfamily factor, 25-50 ng/ml
# Assays:
# Format in all cases: cell-based, human
# hESC-derived EBs [1] = assay: Neural precursor marker expression in EBs (FACS, indirect immunofluorescence)
# Procedure: (§1) EBs were dissociated into smaller clusters mechanically with/without the aid of trypsin (0.025%, 3 mM EDTA in PBS) digestion. The small clusters of cells were plated on poly-D-lysine (30-70 kDa, 10 μg/ml; Sigma, St. Louis, Mo.) and laminin-coated (4 μg/ml; Sigma) glass coverslips and cultured for additional 3-5 weeks in the culture medium used for suspension culture of EBs or neural spheres. Differentiated cells within the outgrowth were fixed with 4% paraformaldehyde for 20 minutes at room temperature. Cell membranes were permeabilized with 0.2% Triton X100 (Sigma) in PBS for 5 minutes for immunostaining with ant-intracellular markers antibodies. The cells were incubated with the following primary antibodies: anti β-tubulin III (mouse monoclonal IgG2b, 1:2000, Sigma), anti human alphafetoprotein (mouse monoclonal IgG2a, 1:200, Sigma), anti human muscle actin (mouse monoclonal IgG1, 1:10, Dako) and anti human desmin (mouse monoclonal IgG1,κ, 1:10, Dako), anti-Pax6 (Developmental Studies Hybridoma Bank; mouse monoclonal IgG1, 1:100), anti-MITF (Lab Vision Corporation, Fremont, Calif.; mouse IgG1, 1:50), anti-RPE65 (Novus Biologicals, Littleton, Colo.; mouse IgG1, 1:300), anti-Bestrophin (Novus Biologicals, Littleton, Colo.; mouse IgG1, 1:150), anti-ZO-1 (Zymed Laboratories Inc., South San Francisco, Calif.; rabbit polyclonal, 1:10) and anti-CRALBP (kindly provided by John C. Saari, University of Washington, Seattle; rabbit polyclonal, 1:100).
# hESC-derived EBs [2] = assay: Differentiation towards RPE (pigmented) cells within EBs
# Procedure: (§2) Human ES cells were removed from the feeders by treatment with dispase (10 mg/ml; Gibco), and/or type IV collagenase (1 mg/ml; Gibco). The clusters of undifferentiated cells that were obtained were further triturated into smaller clumps within PBS. These clumps were cultured for various periods in suspension within bacteriological dishes precoated with 0.1% low melting temperature agarose in DMEM (Gibco), supplemented with 10-20% FCS (Biological Industries, Beit Haemek), 1 mM L-glutamine, 0.1 mM β-mercaptoethanol, 1% non-essential amino acid stock, 50 units/ml penicillin, 50 μg/ml streptomycin (all from Gibco Invitrogen Corporation products, USA) in the presence or absence of nicotinamide 10 mM (Sigma). In some experiments DMEM and FCS were replaced by 86% KO-DMEM and 14% KOSR or by Neurobasal medium supplemented by N2 (Gibco).
# Differentiation into neural spheres was conducted according to the published protocol (Itsykson, P., et al. Derivation of neural precursors from human embryonic stem cells in the presence of noggin. Mol Cell Neurpsci 30, 24-36 (2005). Spheres were dissociated mechanically by trituration. Pigmented clusters of cells within EBs, differentiating 8-10 weeks were mechanically dissected by glass micropipettes or scalpel blades.
# as §1
# hESC-derived EBs [3] = assay: Immunocytochemical and RT-PCR analysis of EBs
# Procedure: EBs that were developed 4 weeks in suspension culture in the presence and absence of nicotinamide (NA), were fixed in 4% paraformaldehyde at room temperature overnight. The EBs were then concentrated at the bottom of a centrifuge tube and embedded in agar. The agar blocks were dehydrated, and embedded in paraffin. 5-micron sections were immuno-stained with anti-human cytokeratin-8 and anti-α-fetoprotein (both at 1:50, monoclonal mouse IgG, DAKO). Primary antibody localization was performed using Picture™ plus kit (Zymed). For RT PCR analysis, total RNA was collected from EBs that were developed 4 weeks in suspension culture in the presence and absence of nicotinamide (NA). Total RNA was isolated using TRI REAGENT (Sigma) and converted into complementary cDNA with M-MLV reverse transcriptase (Promega). PCR was carried out using standard protocols with Taq DNA Polymerase (Promega). Amplification conditions were as follows: denaturation at 94° C. for 60 seconds, annealing at 55-60° C. for 60 seconds, and extension at 72° C. for 60 seconds. The number of cycles was 35 Primer sequences and lengths of amplified products were: […]
# hESC-derived EBs [4] = assay: EB formation in presence or absence of nicotinamide: morphology, size, cell number; details: for number of cells versus controls: comparable number of starting cells
# Procedure: as §2
# hESC-derived EBs [5] = assay: Gene expression profile of EBs by affymetrix gene arrays
# cord-derived fibroblasts = assay: Propagation of cord-derived feeders with FGF2 supplementation; details: medium supplemented with FGF2; FIG. 16
# Procedure: Term umbilical cord tissue was minced as above, and the small pieces of tissue were plated in the fibroblast culture medium, as described above. To promote the adherence of the tissue pieces to the culture dish, flasks were incubated upright overnight. Cells emanating from the tissue pieces were propagated as above.
# hESC [6] = assay: hESC culture on dishes pre-coated with different matrices; FACS marker expression
# Procedure: Human embryonic fibroblasts derived from umbilical cord as described herein or foreskin fibroblasts were used as feeders. The feeders were plated in tissue culture dishes precoated with 1 μg/cm^2 human Fibronectin (BD Biosciences, Bedford, Mass.) or 100 μg/ml recombinant Gelatin (FibroGen, SF). Mitotic inactivation was carried out by incubating the feeders 2.5 hours with Mitomycin-C (Kyowa, Tokyo). KO DMEM (Gibco), X-Vivo 10 (Biowhittaker, Maryland), or Cellgro Stem Cell Growth Medium (CellGenix Freiburg, Germany) were used as the basic media. They were supplemented with TCH (1-2%; Protide Pharmaceuticals, St. Paul, Minn.) or Nutridoma-CS (2%; Roche, Germany) as serum substitutes. The media were supplemented with 2 mM glutamine (Hyclone, Utah) and non-essential amino acids (NEAA, 1%; Hyclone Utah). HESC were split weekly with Ca/Mg^++-free PBS supplemented with 0.05% EDTA.
# FACS analysis of marker expression was performed on hESC after disaggregation using Ca/Mg^++-free PBS supplemented with 0.05% EDTA. The cells were then washed with FACS media consisting of PBS supplemented with 1% BSA and 0.05% sodium azide. The single cell suspension was stained with anti-SSEA4 (1:100, mouse monoclonal IgG3, Developmental Studies Hybridoma Bank (DHSB), Iowa City, Iowa), and anti-Tra-1-60 (1:20, monoclonal mouse IgM, gift from Prof. P. Andrews), anti-Tra-1-81 (1:100, monoclonal mouse IgM, Chemicon International), anti-human Oct 4 (mouse monoclonal IgG2b, 1:50, Santa Cruz), and anti-SSEA1 (1:100, Chemicon). Control hESC were stained with the respective isotype control antibodies. Primary antibodies were detected with a FITC-labeled goat anti-mouse Ig (1:100, Dako).
# hESC [7] = assay: Suspension culture of hESC in NBN2 medium; details: NBN2, in the presence of FGF2, 3 weeks
# Procedure: In the course of the routine passaging procedure, HESC colonies were dissociated with 0.05% of EDTA for 7-10 min at 37°, or mechanically with the aid of collagenase IV (1 mg/ml, 120 min at 37°). Cell dissociation was promoted by gentle blowing of the medium with a 1 ml pipette tip towards the hESC colonies. The cells/cell-clusters were re-suspended in NBN2 medium (Neurobasal, N2 supplement 1:100, glutamine 2 mM, 50 units/ml penicillin, 50 μg/ml streptomycin) supplemented with bFGF 20 ng/ml, noggin 250 ng/ml, activin 25-50 ng/ml, fibronectin and laminin 5 ng/ml each, gelatin 0.001%. The suspension may be strained though 30-50 micron mesh to remove big clumps and transferred into tissue culture dishes (Costar®, Corning Inc., Corning, N.Y., USA) at a density of ˜0.7-1.2×10^6 cells/ml. Dead cells and their fragments were gradually removed during media refreshment and small transparent cell aggregates emerged from the 3rd-5th days of suspension culture. The cells proliferated as free-floating tiny clusters of 20-50 cells. Aggregation and overgrowth of clusters was prevented by their daily trituration with a 1000 μl pipettor tip. Alternatively, every 7 days clusters were dissociated with Ca/Mg-free PBS supplemented with 3 mM EDTA and 0.06% trypsin and the single cells were resuspended in fresh medium. […]
# [8] = in the presence of NA, indirect immunofluorescence
# [9] = 4 weeks suspension culture, presence vs absence of NA
# [10] = Cellgro medium with 2% TCH, matrix coating
molecule,measurement,setting,value
"NC(=O)c1cccnc1 [NA, nicotinamide]",percentage of cells expressing PSA-NCAM,"hESC-derived EBs [1]; 6 weeks in the presence of NA, FACS",85.5%
same,percentage of cells expressing nestin,hESC-derived EBs [1]; [8],58.3%
same,percentage of cells expressing β-tubulin III,hESC-derived EBs [1]; [8],67.8%
same,percentage of EBs that included clusters of pigmented cells,hESC-derived EBs [2]; 5 weeks of differentiation in the presence of NA,34%
same,percentage of EBs that included clusters of pigmented cells,hESC-derived EBs [2]; 6 weeks of differentiation in the presence of NA,59%
same,percentage of EBs that included clusters of pigmented cells,hESC-derived EBs [2]; 12 weeks of differentiation in the presence of NA,70%
same,expression of the RPE markers RPE65 and MITF A,"hESC-derived EBs [2]; Real Time PCR, 6 weeks, versus control EBs",significantly increased; also recorded: induction
same,percentage of cells within the EBs that were pigmented,hESC-derived EBs [2]; after 6 weeks of differentiation,9%
same,expression of cytokeratin-8 within EBs,"hESC-derived EBs [3]; 4 weeks in the presence of NA, immunocytochemistry",not demonstrated; also recorded: only a few cells
same,expression of α-fetoprotein within EBs,"hESC-derived EBs [3]; differentiation in the presence of NA, immunocytochemistry and RT-PCR",not detected; also recorded: suppressed; also recorded: only a few cells
same,development of cystic structures in EBs,hESC-derived EBs [4]; EBs cultured in the presence of RA and NA,infrequent; also recorded: blocked the effects of RA
same,morphology of differentiated cells within EBs,hESC-derived EBs [4]; NA 10 mM,acquired the morphology of neural precursor cells
same,prolonged culture of EBs,hESC-derived EBs [4]; NA treatment,12 weeks
same,number of cells versus controls,hESC-derived EBs [4]; after 2 weeks,5.4 times
same,number of cells versus controls,hESC-derived EBs [4]; after 4 weeks,33 times
same,formation of cystic structures within EBs,"hESC-derived EBs [4]; chemically-defined medium (NBN2), 2-5 weeks",not observed
same,effect of RA on number of differentiated cells,hESC-derived EBs [4]; medium with RA supplemented with NA,blocked
same,size of EBs (maximal diameter) versus EBs without NA,"hESC-derived EBs [4]; serum-free medium, two weeks of differentiation",1.7 times
same,formation of cystic structures within EBs,"hESC-derived EBs [4]; serum-supplemented medium, NA 10 mM",not formed; also recorded: not observed
same,number of genes down-regulated,hESC-derived EBs [5]; [9],630 genes
same,number of genes up- or down-regulated by at least two-fold,hESC-derived EBs [5]; [9],1072 genes
same,number of genes up-regulated,hESC-derived EBs [5]; [9],442 genes
same,expression of chordin-like-1 gene,"hESC-derived EBs [5]; gene arrays, confirmed by RT PCR",up-regulated
same,expression of LEFT A & B and PITX1,"hESC-derived EBs [5]; gene arrays, 4 weeks",down regulated
same,"expression of Wnt signaling pathway genes (Wnt4, Wnt 2B, FZD1, FZD2, FZD3, FZD10)","hESC-derived EBs [5]; gene arrays, 4 weeks",induced
same,expression of ZIC1,"hESC-derived EBs [5]; gene arrays, 4 weeks",remarkably up-regulated
same,"expression of cytokeratins 7, 18, 19, 23","hESC-derived EBs [5]; gene arrays, 4 weeks",suppressed
same,expression of α-fetoprotein and cytokeratin-8,"hESC-derived EBs [5]; gene arrays, 4 weeks",suppressed
FGF2: growth factor supplementing the medium,proliferation of the fibroblasts,cord-derived fibroblasts,could be augmented
gelatin,percentage of SSEA-4+ cells,hESC [6]; [10],97%
same,percentage of Tra-1-60+ cells,hESC [6]; [10],92%
same,percentage of SSEA-4+ hESC,"hESC [6]; foreskin feeder layer, KO DMEM+KO SR, plates precoated with the matrix",91%
B1,effect on survival/proliferation of hESC in suspension,hESC [7]; FIG. 23B,could promote survival/proliferation
B2,effect on differentiation of hESC in suspension,hESC [7]; FIG. 23A,prevented differentiation

# Reference: patent US9005965B2, “Stem cells culture systems” (Hadasit Medical Research Services & Development Limited, priority 2004, dated 2015)
